Results published in patent US11572590B2, “Methods for evaluating tumor cell spheroids using 3D microfluidic cell culture device” (Dana-Farber Cancer Institute, Inc., priority 2017, dated 2023).
Like-named read-outs stand apart in the source and are kept apart here.

Experiments:
off-target kinases [1] = molecular target: T1, off-target kinases (Homo sapiens, UniProt O14936); test: SelectScreen Kinase Profiling, single point inhibition and IC50 for off-target kinases; type: biochemical; details: CASK, LanthaScreen Binding
T1 sequence (O14936 1-926): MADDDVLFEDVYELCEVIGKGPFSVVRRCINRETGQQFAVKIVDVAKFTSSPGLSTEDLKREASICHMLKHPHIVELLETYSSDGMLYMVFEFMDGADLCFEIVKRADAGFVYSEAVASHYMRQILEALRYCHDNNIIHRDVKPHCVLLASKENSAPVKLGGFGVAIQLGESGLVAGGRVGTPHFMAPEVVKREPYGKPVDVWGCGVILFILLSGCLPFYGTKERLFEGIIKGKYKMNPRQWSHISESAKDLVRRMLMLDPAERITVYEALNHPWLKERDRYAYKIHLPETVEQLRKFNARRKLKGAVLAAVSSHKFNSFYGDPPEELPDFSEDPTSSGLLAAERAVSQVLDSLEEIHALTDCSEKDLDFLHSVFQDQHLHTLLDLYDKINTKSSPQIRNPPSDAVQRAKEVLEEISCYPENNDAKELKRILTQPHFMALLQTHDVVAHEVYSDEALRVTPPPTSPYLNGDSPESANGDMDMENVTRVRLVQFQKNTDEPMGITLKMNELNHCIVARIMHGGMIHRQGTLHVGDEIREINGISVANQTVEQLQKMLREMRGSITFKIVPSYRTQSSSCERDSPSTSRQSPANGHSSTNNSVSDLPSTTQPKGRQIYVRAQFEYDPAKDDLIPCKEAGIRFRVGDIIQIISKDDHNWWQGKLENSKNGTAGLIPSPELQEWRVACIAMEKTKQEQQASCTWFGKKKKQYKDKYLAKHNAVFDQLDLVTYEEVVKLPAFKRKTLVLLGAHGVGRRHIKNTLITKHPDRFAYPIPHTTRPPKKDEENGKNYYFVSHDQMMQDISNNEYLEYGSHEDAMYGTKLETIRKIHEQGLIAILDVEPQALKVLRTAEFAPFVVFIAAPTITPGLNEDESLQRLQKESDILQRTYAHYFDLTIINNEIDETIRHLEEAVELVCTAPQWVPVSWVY

off-target kinases [2] = molecular target: T2, off-target kinases (Homo sapiens, UniProt Q12866, A708S); test: as above; type: biochemical; details: MERTK (cMER) A708S, mutant y, LanthaScreen Binding
T2 sequence (Q12866 21-999 A708S): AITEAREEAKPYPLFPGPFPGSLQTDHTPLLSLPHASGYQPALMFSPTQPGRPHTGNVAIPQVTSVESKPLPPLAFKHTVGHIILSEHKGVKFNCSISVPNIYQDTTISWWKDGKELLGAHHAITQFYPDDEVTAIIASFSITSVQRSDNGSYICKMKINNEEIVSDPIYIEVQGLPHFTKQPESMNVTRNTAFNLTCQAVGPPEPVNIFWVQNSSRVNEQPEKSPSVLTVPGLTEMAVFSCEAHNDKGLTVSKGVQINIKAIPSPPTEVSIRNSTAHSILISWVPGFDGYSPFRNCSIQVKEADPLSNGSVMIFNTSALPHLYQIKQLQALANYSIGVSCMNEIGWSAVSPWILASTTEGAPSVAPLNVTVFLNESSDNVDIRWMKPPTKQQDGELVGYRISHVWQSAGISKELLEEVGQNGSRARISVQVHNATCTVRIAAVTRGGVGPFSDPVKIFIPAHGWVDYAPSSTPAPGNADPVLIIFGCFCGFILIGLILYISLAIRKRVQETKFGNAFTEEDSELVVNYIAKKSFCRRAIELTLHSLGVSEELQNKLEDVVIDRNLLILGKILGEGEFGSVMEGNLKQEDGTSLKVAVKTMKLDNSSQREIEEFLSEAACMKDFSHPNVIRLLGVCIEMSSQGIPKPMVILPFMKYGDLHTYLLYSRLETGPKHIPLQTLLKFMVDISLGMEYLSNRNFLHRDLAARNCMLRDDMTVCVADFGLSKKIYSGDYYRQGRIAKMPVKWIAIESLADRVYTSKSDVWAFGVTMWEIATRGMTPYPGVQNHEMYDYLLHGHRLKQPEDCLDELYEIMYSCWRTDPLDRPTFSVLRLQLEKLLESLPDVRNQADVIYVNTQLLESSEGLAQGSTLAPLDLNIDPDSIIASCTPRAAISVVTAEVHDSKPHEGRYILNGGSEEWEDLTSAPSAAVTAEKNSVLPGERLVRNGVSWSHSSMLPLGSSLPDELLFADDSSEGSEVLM

SMILES: N#Cc1cc(-c2ncnc(Nc3ccc(N4CCN(C5COC5)CC4)cc3)n2)ccc1OC1CCOCC1 [Compound 1, 5-(4-((4-(4-(oxetan-3-yl)piperazin-1-yl)phenyl)amino)-1,3,5-triazin-2-yl)-2-((tetrahydro-2H-pyran-4-yl)oxy)benzonitrile]
- inhibition (off-target kinases [1]; read-out: % Inhibition 1): 6%
- inhibition (off-target kinases [1]; read-out: % Inhibition 2): 10%
- inhibition (off-target kinases [1]; read-out: % Inhibition Avg): 8%
- inhibition (off-target kinases [2]; read-out: % Inhibition 1): 24%
- inhibition (off-target kinases [2]; read-out: % Inhibition 2): 27%
- inhibition (off-target kinases [2]; read-out: % Inhibition Avg): 26%
